Measurements reported in ChEMBL document CHEMBL1201861, “Genomics of Drug Sensitity in Cancer screening data, Wellcome Trust Sanger Institute”.

Experiments:
Experiment in all cases: cells
LB2518-MEL = type: functional, cell-based, Homo sapiens; details: Homo sapiens, LB2518-MEL;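 also: growth inhibition of human LB2518-MEL cells, measured with a cell viability assay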
Description: SANGER: Inhibition of human LB2518-MEL cell growth in a cell viability assay.

KG-1 = type: functional, cell-based; details: Homo sapiens;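 also: growth inhibition of KG-1 cells, read out by a cell viability assay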
Description: SANGER: Inhibition of human KG-1 cell growth in a cell viability assay.

NCI-H1693 = type: functional, cell-based, Homo sapiens; details: Homo sapiens, NCI-H1693;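 also: growth inhibition of the human cell line, read out with a cell viability assay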
Description: SANGER: Inhibition of human NCI-H1693 cell growth in a cell viability assay.

D283 Med = type: functional, cell-based, Homo sapiens; details: Homo sapiens, D283 Med
Description: SANGER: Inhibition of human D-283MED cell growth in a cell viability assay.

647-V = type: functional, cell-based, Homo sapiens; details: Homo sapiens, 647-V;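 also: growth inhibition of 647-V cells, read out with a cell viability assay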
Description: SANGER: Inhibition of human 647-V cell growth in a cell viability assay.

GI-ME-N = type: functional, cell-based, Homo sapiens; details: Homo sapiens, GI-ME-N;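 also: growth inhibition of human GI-ME-N cells, read out with a cell viability assay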
Description: SANGER: Inhibition of human GI-ME-N cell growth in a cell viability assay.

HT-1080 = type: functional, cell-based, Homo sapiens; details: Homo sapiens, HT-1080
Description: SANGER: Inhibition of human HT-1080 cell growth in a cell viability assay.

SK-OV-3 = type: functional, cell-based, Homo sapiens; details: Homo sapiens, SK-OV-3;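 also: growth inhibition of SK-OV-3 human cells, read out with a cell viability assay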
Description: SANGER: Inhibition of human SK-OV-3 cell growth in a cell viability assay.

SNU-449 = type: functional, cell-based, Homo sapiens; details: Homo sapiens, SNU-449
Description: SANGER: Inhibition of human SNU-449 cell growth in a cell viability assay.

NCI-H1793 = type: functional, cell-based, Homo sapiens; details: Homo sapiens, NCI-H1793;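 also: cell growth inhibition, read out by a cell viability assay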
Description: SANGER: Inhibition of human NCI-H1793 cell growth in a cell viability assay.

NCI-H358 = type: functional, cell-based, Homo sapiens; details: Homo sapiens, NCI-H358;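 also: growth inhibition of NCI-H358 human cells, read out with a cell viability assay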
Description: SANGER: Inhibition of human NCI-H358 cell growth in a cell viability assay.

NCI-H28 = type: functional, cell-based, Homo sapiens; details: Homo sapiens, NCI-H28;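 also: growth inhibition of human NCI-H28 cells, read out as cell viability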
Description: SANGER: Inhibition of human NCI-H28 cell growth in a cell viability assay.

BE-13 = type: functional, cell-based; details: Homo sapiens;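 also: growth inhibition of human BE-13 cells, measured with a cell viability assay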
Description: SANGER: Inhibition of human BE-13 cell growth in a cell viability assay.

GAMG = type: functional, cell-based, Homo sapiens; details: Homo sapiens, GAMG;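 also: cell growth inhibition measured by a viability assay in the GAMG human cell line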
Description: SANGER: Inhibition of human GAMG cell growth in a cell viability assay.

A2780 = type: functional, cell-based, Homo sapiens; details: Homo sapiens, A2780;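 also: growth inhibition of A2780 cells, read out with a cell viability assay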
Description: SANGER: Inhibition of human A2780 cell growth in a cell viability assay.

IST-MES1 = type: functional, cell-based, Homo sapiens; details: Homo sapiens, IST-MES1;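 also: growth inhibition of IST-MES1 cells, measured with a cell viability assay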
Description: SANGER: Inhibition of human IST-MES1 cell growth in a cell viability assay.

EW-16 = type: functional, cell-based, Homo sapiens; details: Homo sapiens, EW-16;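 also: growth inhibition of human EW-16 cells, read out as cell viability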
Description: SANGER: Inhibition of human EW-16 cell growth in a cell viability assay.

UMC-11 = type: functional, cell-based, Homo sapiens; details: Homo sapiens, UMC-11;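 also: growth inhibition of UMC-11 cells, read out with a cell viability assay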
Description: SANGER: Inhibition of human UMC-11 cell growth in a cell viability assay.

LB771-HNC = type: functional, cell-based, Homo sapiens; details: Homo sapiens, LB771-HNC;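 also: growth inhibition of LB771-HNC human cells, read out with a cell viability assay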
Description: SANGER: Inhibition of human LB771-HNC cell growth in a cell viability assay.

HOP-62 = type: functional, cell-based, Homo sapiens; details: Homo sapiens, HOP-62;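 also: cell growth inhibition determined with a viability assay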
Description: SANGER: Inhibition of human HOP-62 cell growth in a cell viability assay.

8-MG-BA = type: functional, cell-based, Homo sapiens; details: Homo sapiens, 8-MG-BA;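 also: growth inhibition of 8-MG-BA cells, read out with a cell viability assay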
Description: SANGER: Inhibition of human 8-MG-BA cell growth in a cell viability assay.

MKN-7 = type: functional, cell-based, Homo sapiens; details: Homo sapiens, MKN-7;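 also: growth inhibition of MKN-7 cells, read out with a cell viability assay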
Description: SANGER: Inhibition of human MKN7 cell growth in a cell viability assay.

LAN-6 = type: functional, cell-based, Homo sapiens; details: Homo sapiens, LAN-6;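 also: growth inhibition of LAN-6 cells, determined with a cell viability assay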
Description: SANGER: Inhibition of human LAN-6 cell growth in a cell viability assay.

SW1573 = type: functional, cell-based, Homo sapiens; details: Homo sapiens, SW1573;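 also: growth inhibition of SW1573 cells, read out with a cell viability assay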
Description: SANGER: Inhibition of human SW1573 cell growth in a cell viability assay.

Panc1005 = type: functional, cell-based, Homo sapiens; details: Homo sapiens, Panc1005;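 also: growth inhibition of human PANC-10-05 cells, measured by a cell viability assay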
Description: SANGER: Inhibition of human PANC-10-05 cell growth in a cell viability assay.

NCI-H1155 = type: functional, cell-based; details: Homo sapiens;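 also: cell growth inhibition measured by a viability assay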
Description: SANGER: Inhibition of human NCI-H1155 cell growth in a cell viability assay.

SJSA-1 = type: functional, cell-based, Homo sapiens; details: Homo sapiens, SJSA-1;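 also: growth inhibition of human SJSA-1 cells, read out through a cell viability measurement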
Description: SANGER: Inhibition of human SJSA-1 cell growth in a cell viability assay.

CHP-212 = type: functional, cell-based, Homo sapiens; details: Homo sapiens, CHP-212
Description: SANGER: Inhibition of human CHP-212 cell growth in a cell viability assay.

GP5d = type: functional, cell-based, Homo sapiens; details: Homo sapiens, GP5d;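 also: growth inhibition of human GP5d cells, read out with a cell viability assay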
Description: SANGER: Inhibition of human GP5d cell growth in a cell viability assay.

ONS-76 = type: functional, cell-based, Homo sapiens; details: Homo sapiens, ONS-76;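 also: growth inhibition of human ONS-76 cells, read out with a cell viability assay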
Description: SANGER: Inhibition of human ONS-76 cell growth in a cell viability assay.

8505C = type: functional, cell-based, Homo sapiens; details: Homo sapiens, 8505C
Description: SANGER: Inhibition of human 8505C cell growth in a cell viability assay.

SCC-25 = type: functional, cell-based, Homo sapiens; details: Homo sapiens, SCC-25;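 also: growth inhibition of SCC-25 cells, measured with a cell viability assay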
Description: SANGER: Inhibition of human SCC-25 cell growth in a cell viability assay.

SK-MES-1 = type: functional, cell-based, Homo sapiens; details: Homo sapiens, SK-MES-1;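 also: growth inhibition of human SK-MES-1 cells, read out with a cell viability assay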
Description: SANGER: Inhibition of human SK-MES-1 cell growth in a cell viability assay.

NB14 = type: functional, cell-based; details: Homo sapiens;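 also: growth inhibition of NB14 cells measured with a cell viability assay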
Description: SANGER: Inhibition of human NB14 cell growth in a cell viability assay.

Ca9-22 = type: functional, cell-based, Homo sapiens; details: Homo sapiens, Ca9-22;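 also: growth inhibition of Ca9-22 cells, read out with a cell viability assay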
Description: SANGER: Inhibition of human Ca9-22 cell growth in a cell viability assay.

EGI-1 = type: functional, cell-based, Homo sapiens; details: Homo sapiens, EGI-1;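 also: cell viability readout used to gauge growth inhibition of EGI-1 cells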
Description: SANGER: Inhibition of human EGI-1 cell growth in a cell viability assay.

BCPAP = type: functional, cell-based, Homo sapiens; details: Homo sapiens, BCPAP;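 also: growth inhibition of BCPAP cells, read out in a cell viability assay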
Description: SANGER: Inhibition of human BCPAP cell growth in a cell viability assay.

NCI-H209 = type: functional, cell-based; details: Homo sapiens;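 also: growth inhibition of human NCI-H209 cells, measured by a cell viability assay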
Description: SANGER: Inhibition of human NCI-H209 cell growth in a cell viability assay.

NCI-H720 = type: functional, cell-based; details: Homo sapiens;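 also: growth inhibition of human NCI-H720 cells determined by a cell viability assay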
Description: SANGER: Inhibition of human NCI-H720 cell growth in a cell viability assay.

HAL-01 = type: functional, cell-based; details: Homo sapiens;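 also: growth inhibition of human HAL-01 cells, read out with a cell viability assay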
Description: SANGER: Inhibition of human HAL-01 cell growth in a cell viability assay.

AGS = type: functional, cell-based, Homo sapiens; details: Homo sapiens, AGS;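 also: growth inhibition of AGS cells, determined with a cell viability assay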
Description: SANGER: Inhibition of human AGS cell growth in a cell viability assay.

NCI-H1581 = type: functional, cell-based, Homo sapiens; details: Homo sapiens, NCI-H1581;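 also: cell growth inhibition read out by a viability assay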
Description: SANGER: Inhibition of human NCI-H1581 cell growth in a cell viability assay.

TGBC1TKB = type: functional, cell-based, Homo sapiens; details: Homo sapiens, TGBC1TKB;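 also: growth inhibition of TGBC1TKB cells, read out by a cell viability assay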
Description: SANGER: Inhibition of human TGBC1TKB cell growth in a cell viability assay.

RT-112 = type: functional, cell-based, Homo sapiens; details: Homo sapiens, RT-112
Description: SANGER: Inhibition of human RT-112 cell growth in a cell viability assay.

LK-2 = type: functional, cell-based, Homo sapiens; details: Homo sapiens, LK-2;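 also: growth inhibition of LK-2 cells, read out with a viability assay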
Description: SANGER: Inhibition of human LK-2 cell growth in a cell viability assay.

KP-N-YN = type: functional, cell-based; details: Homo sapiens;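 also: growth inhibition of KP-N-YN cells, read out with a cell viability assay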
Description: SANGER: Inhibition of human KP-N-YN cell growth in a cell viability assay.

A4-Fuk = type: functional, cell-based; details: Homo sapiens;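 also: growth inhibition of A4-Fuk cells, read out by a cell viability assay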
Description: SANGER: Inhibition of human A4-Fuk cell growth in a cell viability assay.

SNU-C2B = type: functional, cell-based, Homo sapiens; details: Homo sapiens, SNU-C2B;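 also: cell viability readout used to measure compound-driven suppression of SNU-C2B cell proliferation, IC50 marking half-maximal growth inhibition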
Description: SANGER: Inhibition of human SNU-C2B cell growth in a cell viability assay.

NKM-1 = type: functional, cell-based; details: Homo sapiens;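 also: growth inhibition of NKM-1 cells, read out with a cell viability assay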
Description: SANGER: Inhibition of human NKM-1 cell growth in a cell viability assay.

KURAMOCHI = type: functional, cell-based; details: Homo sapiens;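 also: growth inhibition of KURAMOCHI cells, read out with a cell viability assay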
Description: SANGER: Inhibition of human KURAMOCHI cell growth in a cell viability assay.

A253 cell line = type: functional, cell-based, Homo sapiens; details: Homo sapiens, A253;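 also: growth inhibition of A253 cells, read out with a cell viability assay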
Description: SANGER: Inhibition of human A253 cell growth in a cell viability assay.

Work on `Nc1ccn([C@@H]2O[C@H](CO)[C@@H](O)[C@@H]2O)c(=O)n1` [CYTARABINE] yielded an IC50 (LB2518-MEL) greater than 2 µM, an IC50 (KG-1) of 1.16 µM and an IC50 (NCI-H1693) greater than 2 µM. It also gave an IC50 (D283 Med) of 0.36 µM, an IC50 (647-V) of 1.23 µM and an IC50 (GI-ME-N) of 1.66 µM. The IC50 (HT-1080) was 0.114 µM, the IC50 (SK-OV-3) was greater than 2 µM and the IC50 (SNU-449) was greater than 2 µM. The IC50 (NCI-H1793) was greater than 2 µM, the IC50 (NCI-H358) was greater than 2 µM and the IC50 (NCI-H28) was 1.82 µM. It also gave an IC50 (BE-13) of 0.825 µM, an IC50 (GAMG) of 0.394 µM and an IC50 (A2780) of 0.162 µM. For the same compound, the IC50 (IST-MES1) was greater than 2 µM, the IC50 (EW-16) was 0.266 µM and the IC50 (UMC-11) was greater than 2 µM. For the same compound, the IC50 (LB771-HNC) was greater than 2 µM, the IC50 (HOP-62) was greater than 2 µM and the IC50 (8-MG-BA) was 0.341 µM. The IC50 (MKN-7) was greater than 2 µM, the IC50 (LAN-6) was greater than 2 µM and the IC50 (SW1573) was greater than 2 µM. It also gave an IC50 (Panc1005) of 0.802 µM, an IC50 (NCI-H1155) of 0.397 µM and an IC50 (SJSA-1) of 0.235 µM. It also gave an IC50 (CHP-212) of 0.0335 µM, an IC50 (GP5d) of 0.102 µM and an IC50 (ONS-76) of 0.39 µM. It also gave an IC50 (8505C) greater than 2 µM, an IC50 (SCC-25) greater than 2 µM and an IC50 (SK-MES-1) of 0.807 µM. The IC50 (NB14) was 0.31 µM, the IC50 (Ca9-22) was 0.321 µM and the IC50 (EGI-1) was 1.11 µM. The IC50 (BCPAP) was 0.501 µM, the IC50 (NCI-H209) was greater than 2 µM and the IC50 (NCI-H720) was greater than 2 µM. The IC50 (HAL-01) was 0.328 µM, the IC50 (AGS) was 0.918 µM and the IC50 (NCI-H1581) was 1.77 µM. It also gave an IC50 (TGBC1TKB) greater than 2 µM, an IC50 (RT-112) of 0.502 µM and an IC50 (LK-2) of 0.461 µM. For the same compound, the IC50 (KP-N-YN) was greater than 2 µM, the IC50 (A4-Fuk) was 1.17 µM and the IC50 (SNU-C2B) was greater than 2 µM. For the same compound, the IC50 (NKM-1) was 1.06 µM.

`COc1ccc(C2=N[C@@H](c3ccc(Cl)cc3)[C@@H](c3ccc(Cl)cc3)N2C(=O)N2CCNC(=O)C2)c(OC(C)C)c1` [NUTLIN-3] was tested, and the IC50 (LB2518-MEL) was greater than 8 µM, the IC50 (KG-1) was greater than 8 µM and the IC50 (NCI-H1693) was greater than 8 µM. It also gave an IC50 (D283 Med) of 3.58 µM, an IC50 (647-V) greater than 8 µM and an IC50 (GI-ME-N) of 6.22 µM. For the same compound, the IC50 (HT-1080) was 7.48 µM, the IC50 (SK-OV-3) was greater than 8 µM and the IC50 (SNU-449) was greater than 8 µM. For the same compound, the IC50 (NCI-H1793) was greater than 8 µM, the IC50 (NCI-H358) was 7.45 µM and the IC50 (NCI-H28) was 4.63 µM. It also gave an IC50 (BE-13) greater than 8 µM, an IC50 (GAMG) greater than 8 µM and an IC50 (A2780) greater than 8 µM. For the same compound, the IC50 (IST-MES1) was 4.41 µM, the IC50 (EW-16) was greater than 8 µM and the IC50 (UMC-11) was greater than 8 µM. For the same compound, the IC50 (LB771-HNC) was greater than 8 µM, the IC50 (KURAMOCHI) was greater than 8 µM and the IC50 (8-MG-BA) was greater than 8 µM. It also gave an IC50 (MKN-7) greater than 8 µM, an IC50 (LAN-6) greater than 8 µM and an IC50 (SW1573) greater than 8 µM. It also gave an IC50 (Panc1005) greater than 8 µM, an IC50 (NCI-H1155) greater than 8 µM and an IC50 (SJSA-1) of 2.83 µM. It also gave an IC50 (CHP-212) of 1.81 µM, an IC50 (GP5d) greater than 8 µM and an IC50 (ONS-76) of 5.57 µM. For the same compound, the IC50 (8505C) was greater than 8 µM, the IC50 (SCC-25) was greater than 8 µM and the IC50 (A253 cell line) was greater than 8 µM. It also gave an IC50 (SK-MES-1) greater than 8 µM, an IC50 (NB14) greater than 8 µM and an IC50 (Ca9-22) greater than 8 µM. The IC50 (EGI-1) was greater than 8 µM, the IC50 (BCPAP) was greater than 8 µM and the IC50 (NCI-H209) was greater than 8 µM. The IC50 (NCI-H720) was greater than 8 µM, the IC50 (HAL-01) was greater than 8 µM and the IC50 (AGS) was 6.15 µM. For the same compound, the IC50 (NCI-H1581) was greater than 8 µM, the IC50 (TGBC1TKB) was greater than 8 µM and the IC50 (RT-112) was greater than 8 µM. The IC50 (LK-2) was greater than 8 µM, the IC50 (KP-N-YN) was greater than 8 µM and the IC50 (A4-Fuk) was greater than 8 µM. The IC50 (SNU-C2B) was greater than 8 µM and the IC50 (NKM-1) was 1.05 µM.

`Cn1cc(C2=C(c3ccc(Cl)cc3Cl)C(=O)NC2=O)c2ccccc21` [SB-216763] showed an IC50 (LB2518-MEL) greater than 10 µM, an IC50 (KG-1) greater than 10 µM and an IC50 (NCI-H1693) greater than 10 µM. The IC50 (D283 Med) was greater than 10 µM, the IC50 (647-V) was greater than 10 µM and the IC50 (GI-ME-N) was greater than 10 µM. The IC50 (HT-1080) was greater than 10 µM, the IC50 (SK-OV-3) was 9.1 µM and the IC50 (SNU-449) was greater than 10 µM. For the same compound, the IC50 (NCI-H1793) was greater than 10 µM, the IC50 (NCI-H358) was greater than 10 µM and the IC50 (NCI-H28) was greater than 10 µM. The IC50 (BE-13) was greater than 10 µM, the IC50 (GAMG) was 6.65 µM and the IC50 (A2780) was greater than 10 µM. The IC50 (IST-MES1) was greater than 10 µM, the IC50 (EW-16) was greater than 10 µM and the IC50 (UMC-11) was greater than 10 µM. It also gave an IC50 (LB771-HNC) greater than 10 µM, an IC50 (HOP-62) of 0.853 µM and an IC50 (KURAMOCHI) greater than 10 µM. The IC50 (8-MG-BA) was greater than 10 µM, the IC50 (MKN-7) was greater than 10 µM and the IC50 (LAN-6) was greater than 10 µM. For the same compound, the IC50 (SW1573) was greater than 10 µM, the IC50 (Panc1005) was greater than 10 µM and the IC50 (NCI-H1155) was greater than 10 µM. For the same compound, the IC50 (SJSA-1) was greater than 10 µM, the IC50 (CHP-212) was greater than 10 µM and the IC50 (GP5d) was greater than 10 µM. The IC50 (ONS-76) was greater than 10 µM, the IC50 (8505C) was greater than 10 µM and the IC50 (SCC-25) was greater than 10 µM. It also gave an IC50 (SK-MES-1) greater than 10 µM, an IC50 (NB14) greater than 10 µM and an IC50 (Ca9-22) greater than 10 µM. The IC50 (EGI-1) was greater than 10 µM, the IC50 (BCPAP) was greater than 10 µM and the IC50 (NCI-H209) was greater than 10 µM. It also gave an IC50 (HAL-01) greater than 10 µM, an IC50 (AGS) greater than 10 µM and an IC50 (NCI-H1581) greater than 10 µM. The IC50 (TGBC1TKB) was greater than 10 µM, the IC50 (RT-112) was greater than 10 µM and the IC50 (LK-2) was greater than 10 µM. For the same compound, the IC50 (KP-N-YN) was greater than 10 µM, the IC50 (A4-Fuk) was greater than 10 µM and the IC50 (SNU-C2B) was greater than 10 µM. It also gave an IC50 (NKM-1) greater than 10 µM.
